Experimental findings from PMC6151865, “Targeting protein biotinylation enhances tuberculosis chemotherapy” (Science Translational Medicine, 2018) are described below.

Assay [1] relates to Mtb mutant bioA TetON-1 strain. It is filed as cell-based, Mycobacterium tuberculosis.
Assay [2] concerns Mtb carrying an Rv3406 overexpression plasmid (pGMEH-Ptb38-rv3406). In kind it is cell-based, Mycobacterium tuberculosis.

The structures appear in SMILES notation. Entries after “also recorded” stand apart in the source; their conditions may differ.

As to `CO[C@H]1/C=C/O[C@@]2(C)Oc3c(C)c(O)c4c(O)c(c(/C=N/N5CCN(C)CC5)c(O)c4c3C2=O)NC(=O)/C(C)=C\C=C\[C@H](C)[C@H](O)[C@@H](C)[C@@H](O)[C@@H](C)[C@H](OC(C)=O)[C@@H]1C` [rifampicin], in assay [1], the “sensitivity of bioA TetON-1 compared to wild-type Mtb” value is “more sensitive than wild-type Mtb; also recorded: more resistant than wild-type Mtb”. With `Nc1ncnc2c1ncn2[C@@H]1O[C@H](CNS(=O)(=O)NC(=O)CCCC[C@@H]2SC[C@@H]3NC(=O)N[C@@H]32)[C@@H](O)[C@H]1O` [Bio-AMS, 5′-[N-(d-biotinoyl)sulfamoyl]amino-5′-deoxyadenosine], the “resistance relative to wild-type Mtb” value in assay [2] is listed as 64 fold.
